In patent US6833372B2, “Non-peptide GnRH agents, Pharmaceutical compositions, and methods for their use” (Pfizer, Inc., priority 2002, dated 2004) one finds Ki data, which are given here for 18 compounds.

This test has as its target T1, human GnRH receptors (Homo sapiens, UniProt P30968).
T1 construct: expressed in transfected cells; host or cells: HEK 293 cells, stably transfected; membranes
T1 sequence (P30968 1-328): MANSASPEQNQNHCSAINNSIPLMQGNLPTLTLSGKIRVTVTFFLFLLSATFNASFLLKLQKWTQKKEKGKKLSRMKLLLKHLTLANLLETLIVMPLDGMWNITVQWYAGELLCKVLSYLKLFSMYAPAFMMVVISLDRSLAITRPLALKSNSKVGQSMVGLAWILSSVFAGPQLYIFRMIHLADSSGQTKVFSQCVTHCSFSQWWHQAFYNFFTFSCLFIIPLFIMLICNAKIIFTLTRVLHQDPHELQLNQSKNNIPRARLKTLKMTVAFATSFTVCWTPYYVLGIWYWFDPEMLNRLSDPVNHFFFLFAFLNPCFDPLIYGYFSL
Put plainly: Radioligand binding: inhibition of 125I-GnRH-A binding to human GnRH receptor membranes. The settings on record: HEK 293 cell membranes. On the procedure:
HEK 293 cells stably transfected with mouse or human GnRH receptors as described above were grown in Dulbecco's high-glucose, modified Eagle's medium (DMEM) supplemented with 0.2% G418, 10% fetal bovine serum (FBS) and 100 U/mL penicillin/streptomycin. GH3 cells stably transfected with the rat GnRH receptor (GGH3) were provided by Dr. William Chin (Harvard Medical School, Boston, Mass.). These cells have been extensively characterized previously (Kaiser et al., 1997). The cells were grown in low glucose DMEM containing: 100U/mL penicillin/streptomycin, 0.6% G418 and 10% heat-inactivated FBS.
HEK 293 cells containing mouse or human receptors, or rat pituitaries (Pel Freez Biologicals, Rogers, Ark.) were homogenized in buffer A containing: 50 mM Tris (pH 7.4), 0.32 M sucrose, 2 mM EGTA, 1 mM PMSF, 5 μg/ml aprotinen, 5 μg/ml Pepstatin A, and 1 μg/ml leupeptin. Homogenized cells were centrifuged at 4° C. at 20,000×g for 25 minutes, re-suspended in buffer A and re-centrifuged at 4° C. at 20,000×g for an additional 25 minutes. Total membrane protein was determined with a BCA kit (Pierce, Rockford, Ill.). Membranes were stored at −70° C. at a final membrane protein concentration of approximately 5 mg/ml.
The radioiodinated agonist analog of GnRH, [des-Gly^10,D-Ala^6]GnRH ethylamide (^125I-GnRH-A), was used as the radioligand. […] The reaction mixture was vortexed and incubated for 1 minute at room temperature. After one minute, the mixture was vortexed and allowed to incubate for an additional minute. 2 ml of 0.5 M acetic acid/1% BSA was added to the reaction tube and the mixture was added to a C18 Sep-Pak cartridge. The cartridge was washed with subsequent washes of 5 ml H2O and 5 ml 0.5 M acetic acid and then eluted with 5×1 ml of 60% CH3CN/40% 0.5 M acetic acid. The eluate was diluted with 3× volume of HPLC buffer A (0.1% TFA in H2O) and loaded onto a C18 column. The iodinated product was eluted over 20-25 min with a gradient of 25-100% CH3CN containing 0.1% TFA. The radioactive fractions (750 μl/fraction) were collected into clean polypropylene tubes containing 100 μl of 10% BSA. Fractions were assessed for biological activity by radioligand binding. Specific activity of the radioligand was approximately 2200 Ci/mmol.
Membranes were diluted to 0.01-0.5 mg/ml (depending upon the species of receptor) with assay buffer containing 50 mM HEPES (pH 7.4), 1 mM EDTA, 2.5 mM MgCl2, and 0.1% BSA. Membranes (diluted to utilize similar receptor numbers between assays) were incubated with approximately 0.04-0.06 nM ^125I-GnRH-A in the presence or absence of competing agents (0.1-10,000 nM) in a total volume of 200 μl in 96-well polypropylene plates for 1 hour at room temperature. Assays were stopped by rapid filtration onto 96-well GF/C filters soaked in 0.1% polyethylenimine (PEI) utilizing a Packard 96-well cell harvester. Filters were washed three times with ice-cold PBS (50 mM NaPO4, 0.9% NaCl, 2 mM MgCl2, and 0.02% NaN3, pH 7.4). 35 μl of scintillation cocktail was added to each filter well and filters were counted on a Packard Topcount. Control dose-response curves were generated to GnRH (0.1 nM-100 nM) in each competition binding experiment. Ki values were calculated from IC50 values according to Cheng et al., Biochemical Pharmacol. 22: 3099-3108, 1973. [formula]
Regarding `COc1nc(N2CCN(Cc3ccncc3)CC2)nc(OC)c1NC(=O)c1ccc(Cc2cc3c(cc2C)C(C)(C)OC3(C)C)o1` [Example D54, N-{4,6-Dimethoxy-2-[4-(pyridin-4-ylmethyl)piperazin-1-yl]pyrimidin-5-yl}-5-[(1,1,3,3,6-pentamethyl-1,3-dihydro-2-benzofuran-5-yl)methyl]-2-furamide], the Ki (usually a measure of affinity in units of concentration, obtained from inhibition or displacement) is 150 nM.

Turning to `COc1nc(N(C)Cc2cccc(C)n2)nc(OC)c1NC(=O)c1ccc(Cc2cc3c(cc2C)C(C)(C)OC3(C)C)o1` [Example D29, N-(4,6-Dimethoxy-2-{methyl[(6-methylpyridin-2-yl)methyl]amino}pyrimidin-5-yl)-5-[(1,1,3,3,6-pentamethyl-1,3-dihydro-2-benzofuran-5-yl)methyl]-2-furamide], the Ki stood at 54 nM.

`COc1nc(N2CCN(c3cc(C(F)(F)F)nc4ccccc34)CC2)nc(OC)c1NC(=O)c1ccc(Cc2cc3c(cc2C)C(C)(C)OC3(C)C)o1` [Example D61, N-(4,6-dimethoxy-2-{4-[2-(trinfluoromethyl)quinolin-4-yl]piperazin-1-yl}pyrimidin-5-yl)-5-[(1,1,3,3,6-pentamethyl-1,3-dihydro-2-benzofuran-5-yl)methyl]-2-furamide] registered a Ki of 500 nM.

Compound `COc1ccccc1C1CCN(c2nc(OC)c(NC(=O)c3ccc(Cc4cc5c(cc4C)C(C)(C)OC5(C)C)o3)c(OC)n2)CC1` [Example D52, N-{4,6-Dimethoxy-2-[4-(2-methoxyphenyl)piperidin-1-yl]pyrimidin-5-yl}-5-[(1,1,3,3,6-pentamethyl-1,3-dihydro-2-benzofuran-5-yl)methyl]-2-furamide] yielded a Ki of 260 nM.

For the compound `COc1nc(N(Cc2ccccn2)Cc2ccccn2)nc(OC)c1NC(=O)c1ccc(Cc2cc3c(cc2C)C(C)(C)OC3(C)C)o1` [Example D45, N-{2-[Bis(pyridin-2-ylmethyl)amino]-4,6-dimethoxy-pyrimidin-5-yl}-5-[(1,1,3,3,6-pentamethyl-1,3-dihydro-2-benzofuran-5-yl)methyl]-2-furamide], the Ki amounted to 200 nM.

Regarding `COc1nc(NCCCN2CCN(C)CC2)nc(OC)c1NC(=O)c1ccc(Cc2c(C)cc3c(c2C)C(C)(C)CO3)o1` [Example H2, N-(4,6-Dimethoxy-2-{[3-(4-methylpiperazin-1-yl)propyl]amino}pyrimidin-5-yl)-5-[(3,3,4,6-tetramethyl-2,3-dihydro-1-benzofuran-5-yl)methyl]-2-furamide], affinity was put at a Ki of 47 nM.

Compound `COc1nc(N2CCN(CCC#N)CC2)nc(OC)c1NC(=O)c1ccc(Cc2cc3c(cc2C)C(C)(C)OC3(C)C)o1` [Example D26, N-{2-[4-(2-cyanoethyl)piperazin-1-yl]-4,6-dimethoxy-pyrimidin-5-yl}-5-[(1,1,3,3,6-pentamethyl-1,3-dihydro-2-benzofuran-5-yl)methyl]-2-furamide] had a Ki of 84 nM.

For the compound `COc1nc(NCCCN(C)C)nc(OC)c1NC(=O)c1ccc(Cc2cc3c(cc2C)C(C)(C)CC3(C)C)o1` [Example J1, N-(2-{[3-(dimethylamino)propyl]amino}-4,6-dimethoxypyrimidin-5-yl)-5-[(1,1,3,3,6-pentamethyl-2,3-dihydro-1H-inden-5-yl)methyl]-2-furamide], the Ki was 0.2 nM.

On to `COc1nc(N2CCN(CCN3CCOCC3)CC2)nc(OC)c1NC(=O)c1ccc(Cc2cc3c(cc2C)C(C)(C)OC3(C)C)o1` [Example D46, N-{4,6-Dimethoxy-2-(4-(2-morpholin-4-ylethyl)piperazin-1-yl]pyrimidin-5-yl}-5-[(1,1,3,3,6-pentamethyl-1,3-dihydro-2-benzofuran-5-yl)methyl]-2-furamide], for which the affinity corresponds to a Ki of 19 nM.

`COc1nc(N2CCN(c3ccccc3F)CC2)nc(OC)c1NC(=O)c1ccc(Cc2cc3c(cc2C)C(C)(C)OC3(C)C)o1` [Example D43, N-{2-[4-(2-Fluorophenyl)piperazin-1-yl]-4,6-dimethoxypyrimidin-5-yl}-5-[(1,1,3,3,6-pentamethyl-1,3-dihydro-2-benzofuran-5-yl)methyl]-2-furamide] returned a Ki of 160 nM.

Turning to `COc1nc(N[C@H](CO)Cc2c[nH]c3ccccc23)nc(OC)c1NC(=O)c1ccc(Cc2cc3c(cc2C)C(C)(C)OC3(C)C)o1` [Example D64, N-(2-{[(1S)-2-Hydroxy-1-(1H-indol-3-ylmethyl)ethyl]amino}-4,6-dimethoxypyrimidin-5-yl)-5-[(1,1,3,3,6-pentamethyl-1,3-dihydro-2-benzofuran-5-yl)methyl]-2-furamide], affinity was put at a Ki of 21 nM.

`COc1nc(NC2CCCCC2C2CCCCC2)nc(OC)c1NC(=O)c1ccc(Cc2cc3c(cc2C)C(C)(C)OC3(C)C)o1` (stereo not drawn) [Example D31, N-{2-[1,1′-Bi(cyclohexyl)-2-ylamino]4,6-dimethoxy-pyrimidin-5-yl}-5-[(1,1,3,3,6-pentamethyl-1,3-dihydro-2-benzofuran-2-benofuran-5-yl)methyl]-2-furamide] had an inhibitory constant (Ki) of 6700 nM.

`COc1nc(N2CCC[C@H]2C(=O)OC(C)(C)C)nc(OC)c1NC(=O)c1ccc(Cc2cc3c(cc2C)C(C)(C)OC3(C)C)o1` [Example D24, tert-Butyl 1-[4,6-dimethoxy-5-({5-[(1,1,3,3,6-pentamethyl-1,3-dihydro-2-benzofuran-5-yl)methyl]-2-furoyl}amino)pyrimidin-2-yl]prolinate]: the inhibition constant Ki worked out at 360 nM.

`COc1nc(N(C)CC(=O)O)nc(OC)c1NC(=O)c1ccc(Cc2cc3c(cc2C)C(C)(C)OC3(C)C)o1` [Example D27, N-[4,6-Dimethoxy-5-({5-[(1,1,3,3,6-pentamethyl-1,3-dihydro-2-benzofuran-5-yl)methyl]-2-furoyl}amino)pyrimidin-2-yl]-N-methylglycine] gave a Ki of 250 nM.

Turning to `C=C(C)CN(Cc1ccco1)c1nc(OC)c(NC(=O)c2ccc(Cc3cc4c(cc3C)C(C)(C)OC4(C)C)o2)c(OC)n1` [Example D25, N-{2-[(2-Furylmethyl)(2-methylprop-2-enyl)amino]-4,6-dimethoxypyrimidin-5-yl}-5-[(1,1,3,3,6-pentamethyl-1,3-dihydro-2-benzofuran-5-yl)methyl]-2-furamide], the Ki came to 460 nM.

Compound `COc1nc(NC2CCN(Cc3ccccc3)CC2)nc(OC)c1NC(=O)c1ccc(Cc2cc3c(cc2C)C(C)(C)OC3(C)C)o1` [Example D33, N-{2-[(1-Benzylpiperidin-4-yl)amino]-4,6-dimethoxypyrimidin-5-yl}-5-[(1,1,3,3,6-pentamethyl-1,3-dihydro-2-benzofuran-5-yl)methyl]-2-furamide] displayed a Ki of 46 nM.

`COc1nc(N(CCN(C)C)Cc2ccc(F)cc2)nc(OC)c1NC(=O)c1ccc(Cc2cc3c(cc2C)C(C)(C)OC3(C)C)o1` [Example D47, N-{2-[[2-(Dimethylamino)ethyl](4-fluorobenzyl)amino]-4,6-dimethoxypyrimidin-5-yl}-5-[(1,1,3,3,6-pentamethyl-1,3-dihydro-2-benzofuran-5-yl)methyl]-2-furamide] displayed a Ki of 79 nM.

Consider `CCc1ccc(CN(CCCO)c2nc(OC)c(NC(=O)c3ccc(Cc4cc5c(cc4C)C(C)(C)OC5(C)C)o3)c(OC)n2)cc1` [Example D48, N-{2-[(4-Ethylbenzyl)(3-hydroxypropyl)amino]-4,6-dimethoxypyrimidin-5-yl}-5-[(1,1,3,3,6-pentamethyl-1,3-dihydro-2-benzofuran-5-yl)methyl]-2-furamide], for which the Ki came to 240 nM.
